Assay results taken from patent US20210348119A1, “COMPOSITIONS AND METHODS FOR CELL CULTURE” (The United States of America as Represented By The …, priority 2018, published 2021).
Where “and” joins values, the source holds several entries; their conditions need not be identical. Identical values can stand only once. Like-named read-outs stand apart in the source and are kept apart here.

Key:
H9 cells [1] = assay: Combinatorial matrix screening for synergistic effects on cell survival; assay type: cell-based, human; conditions: 10×10 matrix, normalized to 10 μM Y-27632
Protocol: Combinatorial matrix screening was performed to identify the compounds with synergistic effects on cell survival. Focusing on the compounds with different mechanisms of action, 29 compounds were selected for combinational matrix screening, resulting in 812 sets of 10×10 checkerboard matrix experiments (data not shown), four of which are illustrated in FIG. 9. The concentrations of the compounds for combinational matrix screening were optimized based on the slope and potency (AC50) derived from single-agent qHTS dose-response curves, so that the matrix screen covered a wide range of biological effect observed in the cell viability assay. […] The numerals in each 10×10 matrix show the maximum survival achieved with the indicated combinations or single agents. The maximum survival achieved by each pair of compounds is represented by the highest numbers in each 10×10 matrix, the examples of which are shown in FIG. 9. The bottom matrices depict the synergy matrix calculated using highest-single agent (HSA) model. The HSA synergy assesses the pro-survival benefit of compound combination compared to single agent alone, which was computed as the difference between cell survival out of combination and that from the best single agent at each tested concentration. Synergy is defined as the difference between the combination and max response with single agent (synergy=combination max (single agent A, single agent B).

H9 cells [2] = assay: qHTS for survival of dissociated H9 cells (CellTiter-Glo, 24 hours after seeding); assay type: cell-based, human
Text: FIG. 2 schematically illustrates qHTS procedure.
All the screed compounds were received pre-plated at the pre-determined concentrations. […] Curve classification is explained in Huang et al. “Chemical genomics profiling of environmental chemical modulation of human nuclear receptors” Environ. Health. Perspect.

[3] = H9 cell survival normalized to 10 μM Y-27632 (taken to be 100%)
[4] = H9 cell survival, normalized to 10 μM Y-27632
[5] = H9 cell survival, CellTiter-Glo 24 hours after seeding; read-out: AC50 (concentration at 50% efficacy)
[6] = Homo sapiens, H9, 24 h, H9 cell survival, CellTiter-Glo 24 hours after seeding; read-out: AC50 (concentration at 50% efficacy)
[7] = Homo sapiens, H9, 24 h; read-out: Efficacy (activity range between predicted activities at zero and infinite doses, Hill equation)
[8] = Homo sapiens, H9, 24 h; read-out: Max (maximum activity value from all tested concentrations)
[9] = Homo sapiens; H9 cell survival, CellTiter-Glo 24 hours after seeding; read-out: AC50 (concentration at 50% efficacy)
[10] = Homo sapiens, H9, 24 h, H9 cell survival normalized to 10 μM Y-27632 (taken to be 100%); read-out: Max (maximum activity value from all tested concentrations)
[11] = Homo sapiens, H9, 24 h, H9 cell survival, normalized to 10 μM Y-27632; read-out: Efficacy (activity range between predicted activities at zero and infinite doses, Hill equation)

Row | Compound | Max (maximum activity value from all tested concentrations) (H9 cells [2]; [3]) | Efficacy (activity range between predicted activities at zero and infinite doses, Hill equation) (H9 cells [2]; [4]) | AC50 (H9 cells [2]; [5]) | other results
1 | Cc1ccc2c(c1)C(=O)C1(O)CCN(c3ccccc3)C1=N2 (single isomer, unassigned; (-)) [(−)-Blebbistatin] | 90.71% and 107.8% | 105 and 96 | – | synergy with Chroman 1 on cell survival (HSA model) (H9 cells [1]): lacking synergy
2 | CC(C)(C)c1nc2c3cc[nH]c(=O)c3c3cc(F)ccc3c2[nH]1 [Pyridone 6] | 28.9% | 0 | – | –
3 | O=S(=O)(NCC1CC1)c1ccc(Nc2nccc(N3CCCc4cc(O)ccc43)n2)cc1 [Pyrintegrin] | 27.85% | 31 | 3.29 µM | –
4 | CC(C)[C@H](NC(=O)c1ccc2ccccc2n1)C(=O)N[C@@H](CC(=O)O)C(=O)COc1c(F)cccc1F [Q-VD-OPh hydrate] | 93.54% | 85.9 | 1.17 µM | synergy with Chroman 1 on cell survival (HSA model) (H9 cells [1]): synergistic with Chroman 1
5 | O=C(NCc1cccc(O)c1)Nc1nc(-c2ccncc2)cs1 [RKI-1447] | 103.2% | 106 | 0.083 µM | –
6 | Cc1cc(Nc2cc(NC(=O)c3c(Cl)cccc3Cl)ccn2)nc(N)n1 [RO495] | 89.28% | 73.1 | 4.69 µM | –
7 | O=C(Nc1ccc2[nH]ncc2c1)C1CCC1 [Rhodblock 6] | 61.61% | 67.9 | 23.3 µM | –
8 | N#CC[C@H](C1CCCC1)n1cc(-c2ncnc3[nH]ccc23)cn1 [Ruxolitinib, Freebase, Ruxolitinib] | 87.05% | 48 | – | AC50 (H9 cells [2]; [6]): 10.4 µM
9 | N#CC[C@H](C1CCCC1)n1cc(-c2ncnc3[nH]ccc23)cn1 [Ruxolitinib] | – | – | 8.26 µM and 11.8 µM | –
10 | Cl.O=c1[nH]ccc2cc(OC3CCNCC3)ccc12 [SAR407899 (hydrochloride)] | 116.3% | 112 | 2.93 µM | –
11 | C[S+]([O-])c1ccc(-c2nc(-c3ccncc3)c(-c3ccc(F)cc3)[nH]2)cc1 (stereo not drawn) [SB-203580] | – | – | – | Emax (H9 cells [2]; [7]): 37.4%; Emax (H9 cells [2]; [8]): 35.6%; AC50 (H9 cells [2]; [9]): 15.2 µM
12 | CCn1c(-c2nonc2N)nc2cncc(CNC3CCNCC3)c21 [SB-747651-A] | 78.33% and 111.1% | 35.5 and 68.7 | – | –
13 | CN(C)CCOc1cc(-c2cn[nH]c2)ccc1NC(=O)C1COc2ccccc2O1 (stereo not drawn) [SR-3677] | – | – | 0.662 µM | Emax (H9 cells [2]; [10]): 122%; AC50 (H9 cells [2]; [6]): 0.585 µM; Emax (H9 cells [2]; [11]): 118%
14 | O=S(=O)(N=Cc1c(O)ccc2ccccc12)c1cccs1 [STF-083010] | 66.46% | 82.4 | 26.4 µM | –
15 | Cc1cc2c(cc1CC(=O)c1sccc1S(=O)(=O)[N-]c1onc(C)c1Cl)OCO2.[Na+] [Sitaxenian sodium] | 21.69% | 27.1 | 26.1 µM | –
16 | CN1CCN(c2nc(C3=C(c4c[nH]c5ccccc45)C(=O)NC3=O)c3ccccc3n2)CC1 [Sotrastaurin] | – | – | – | Emax (H9 cells [2]; [10]): 35.9%; AC50 (H9 cells [2]; [6]): 16.6 µM; Emax (H9 cells [2]; [11]): 36.5%
17 | Brc1c(Br)c(Br)c2n[nH]nc2c1Br [TBB] | 28.55% | 33.7 | 32.6 µM | –

Row | Compound | Max (maximum activity value from all tested concentrations) (H9 cells [2]; [3]) | Efficacy (activity range between predicted activities at zero and infinite doses, Hill equation) (H9 cells [2]; [4]) | AC50 (H9 cells [2]; [5]) | other results
18 | O=C(O)Cc1cc(I)c(Oc2cc(I)c(O)c(I)c2)c(I)c1 [TETRAC] | – | – | – | Emax (H9 cells [2]; [10]): 34.2%; AC50 (H9 cells [2]; [6]): 14.7 µM; Emax (H9 cells [2]; [11]): 35.8%
19 | Cc1cnc(Nc2ccc(OCCN3CCCC3)cc2)nc1Nc1cccc(S(=O)(=O)NC(C)(C)C)c1 [TG-101348] | – | – | – | Emax (H9 cells [2]; [10]): 55.1%; AC50 (H9 cells [2]; [6]): 33.2 µM; Emax (H9 cells [2]; [11]): 67.3%
20 | O=C(NCc1ccccc1)c1csc(Nc2ccncn2)n1 [Thiazovivin] | 88.3% | 80.6 | 0.414 µM | –
21 | C=C(NC(=O)C(=C)NC(=O)c1csc(C2=N[C@@H]3c4csc(n4)[C@H]4NC(=O)c5csc(n5)[C@H]([C@](C)(O)[C@@H](C)O)NC(=O)[C@H]5CSC(=N5)/C(=C/C)NC(=O)[C@H]([C@@H](C)O)NC(=O)c5csc(n5)[C@]3(CC2)NC(=O)[C@H](C)NC(=O)C(=C)NC(=O)[C@H](C)NC(=O)[C@H]([C@@H](C)CC)N[C@@H]2C=Cc3c([C@H](C)O)cc(nc3[C@H]2O)C(=O)O[C@@H]4C)n1)C(N)=O [Thiostrepton from Streptomyces azureus, Thiostrepton] | – | – | – | AC50 (H9 cells [2]; Homo sapiens, H9, 24 h, read-out: AC50 (concentration at 50% efficacy)): 14.7 µM; Emax (H9 cells [2]; Homo sapiens, H9, 24 h, read-out: Efficacy (activity range between predicted activities at zero and infinite doses, Hill equation)): 30.2%; Emax (H9 cells [2]; Homo sapiens, H9, 24 h, read-out: Max (maximum activity value from all tested concentrations)): 28.4%
22 | Nc1nc2nc[nH]c2c(=S)[nH]1 [Tioguanine] | – | – | – | Emax (H9 cells [2]; [10]): 21.3%; Emax (H9 cells [2]; [11]): 0%
23 | CCC[C@@]1(CCc2ccccc2)CC(O)=C([C@H](CC)c2cccc(NS(=O)(=O)c3ccc(C(F)(F)F)cn3)c2)C(=O)O1 [Tipranavir] | – | – | – | Emax (H9 cells [2]; [7]): 26.5%; Emax (H9 cells [2]; [8]): 21.8%; AC50 (H9 cells [2]; [9]): 26.1 µM
24 | CCC(=O)N1CCN(c2ccc(-n3c(=O)ccc4cnc5ccc(-c6cnc7ccccc7c6)cc5c43)cc2C(F)(F)F)CC1 [Torin-1] | 27.66% | 31.2 | 10.5 µM | –
25 | CN1CCN(Cc2ccc(-c3cnc4[nH]cc(-c5ccc6[nH]ccc6c5)c4c3)cc2)CC1 [URMC-099] | – | – | – | Emax (H9 cells [2]; [10]): 27.1%; AC50 (H9 cells [2]; [6]): 5.21 µM; Emax (H9 cells [2]; [11]): 33.6%
26 | C[C@H]1[C@H](C)CC[C@]2(C(=O)O)CC[C@]3(C)C(=CC[C@@H]4[C@@]5(C)CC[C@H](O)C(C)(C)[C@@H]5CC[C@]43C)[C@H]12 [URSOLIC ACID] | – | – | – | Emax (H9 cells [2]; [10]): 22.3%; AC50 (H9 cells [2]; [6]): 0.521 µM; Emax (H9 cells [2]; [11]): 11.7%
27 | N#Cc1cc(F)cc(-c2nc(-c3ccccn3)no2)c1 [VU 0285683] | 21.28% | 0 | – | –
28 | O=C(Nc1ccc(-c2ccnc(Nc3ccc(N4CCOCC4)cc3)n2)cc1)[C@@H]1CCCN1 [XL-19] | 29.98% | 35.5 | 23.3 µM | –
29 | C[C@@H](N)c1ccc(C(=O)Nc2ccnc3[nH]ccc23)cc1 [Y-39983] | – | – | – | Emax (H9 cells [2]; [10]): 127%; Emax (H9 cells [2]; [11]): 121%
30 | Cc1sc2c(c1C)C(c1ccc(Cl)cc1)=N[C@@H](CC(=O)NCCCCNC(=O)COc1cccc3c1C(=O)N(C1CCC(=O)NC1=O)C3=O)c1nnc(C)n1-2 (stereo partly drawn) [dBETI] | 62.14% | −67.9 | 0.004 µM | –
31 | C/C=C/C(=O)C(C)C1=CC(=O)C2=C(OC34CC[C@H](O)C(C)(C)[C@@H]3CC[C@H](C)C4(C)C2)C1=O (stereo partly drawn) [podosporin A] | 26.17% | 0 | – | –
32 | c1ccc2c3c([nH]c2c1)CNCC3 [tryptoline] | – | – | – | Emax (H9 cells [2]; [10]): 27.9%; AC50 (H9 cells [2]; [6]): 0.0009 µM; Emax (H9 cells [2]; [11]): -33.1%
33 | (−)-Indolactam V | 51.21% | 45.5 | 0.833 µM | –
